Patent US5827895A, “Hexahydrolupulones useful as anticancer agents” (Regents of the University of Minnesota, priority 1996, dated 1998)
In brackets after ≈: the same amount, converted by molar mass. Like-named read-outs stand apart in the source and are kept apart here.

Assays:
MCF-7 cells = test: Colony formation (clonogenic) assay, cytotoxic activity, 18 hour pulse exposure; assay type: cell-based; details: Homo sapiens, MCF7, 2 experiments, read-out: ID50 (the source's name)
Experimental: HHC was tested for cytotoxic activity using a colony formation assay, using an 18 hour pulse exposure. The purpose of the clonogenic assay is to determine the concentration of HHC at which 50% of cell growth is inhibited (i.e., IC50) when cells are exposed to the HHC for a defined amount of time (i.e., a pulse exposure to the xenobiotic).
Five ml of a mixture of 2×10^5 cells/ml (MCF-7 cells) were placed in each of 4 T-25 flasks in a media of RPMI (Gibco). The cells were incubated at 37 ° C. under 5% CO2 for a minimum of 14 hours to allow the cells to attach. The cells were pulsed for 18 hours with HHC concentrations of 0, 1.5, and 25 μM, or with DMSO.
The media was removed from the flasks (i.e., media with floating cells) and placed in 15 ml polypropylene centrifuge tubes 1-4 (summarized in Table II). […]
The cells in the original cell suspension (i.e., in the flask) were counted using trypan blue exclusion assay (described in Example II). Based on this count, the number of cells in the 50x tubes were calculated. The volume necessary to acquire approximately 5400 cells was then determined. […]
Five ml of suspension from each of tubes 13-16 was transferred to 60×15 mm tissue culture dishes (in triplicate). […] The cells were counted in those colonies which consisted of at least 50 cells. The ID50 was determined as described in Example II.

[1] = tested on: VRE (Vancomycin resistant enterococcus); test: Minimum inhibitory concentration, VRE; assay type: cell-based
[2] = Determination of maximal tolerated dose (MTD), single intraperitoneal injection; details: mouse, in vivo, ip
Experimental: (§1) Eight groups of BDF1 mice (5 animals/group) were used to determine a maximal tolerated dose (MTD) for HHC.
(§2) All mice were weighed, the weight being used to determine blood volume for each animal. The amount of drug necessary to achieve a theoretical concentration of drug in the animal (e.g, 50, 100, 150 μM etc.) was calculated based on the formula: blood volume=8% body weight of the animal. Drug solutions were made using DMSO as the solvent and a single intraperitoneal injection of a volume of 100-120 μl was given. […] Based on the above, the MTD is determined to be at 200 μM (~6.5 mg/kg). To confirm the MTD, it is necessary to dose the animals with the predetermined MTD once a day for consecutive days following established experimental treatment times (i.e., 5 days for in vivo tumor inhibition studies).

BDF1 mice = test: as above; details: mouse, in vivo, ip
Experimental: as §1, §2

Leishmania tarentolae = test: Anti-protozoal activity, cell counts of Leishmania tarentolae; assay type: cell-based; details: for activity at 0.1 µM / activity at 0.25 µM / activity at 0.5 µM / activity at 1 µM / activity at 2.5 µM: Leishmania tarentolae, read-out: % control
Experimental: Leishmania tarentolae was grown in BHI (brain heart infusion; Difco) supplemented with 10 μg/ml of hemin. Leishmanial cells were counted by doing a 1:1 dilution of the cells with 3% formaldehyde/1×SSC (0.15 M NaCl/0.015 M sodium citrate) solution. Cells were seeded at log phase (0.5-1×10^6 cells/ml) in T-25 cm^2 flasks. Equal volumes of HHC at different concentrations (0.1, 0.25, 0.5, 1.0, 2.5 μM) were added to the cells. DMSO at the same volume as that used for HHC was included as solvent control. At each time point (6, 12, 18, 24, 32 hrs post-drug addition), cells were observed under the microscope for possible effect of HHC on Leishmanial motility. Aliquots of cells (100 μl) were removed from each flask at each time point, diluted as mentioned above and cell numbers were quantitated using a hemocytometer.

[3] = tested on: OxaRSA (Oxacillin Resistant Staphylococcus aureus); test: Patient isolates evaluated for antibiotic sensitivity, OxaRSA
Experimental: HHC was also tested for effectiveness against various bacterial isolates obtained from human subjects.

CC(C)CCC1=C(O)C(C(=O)C(C)C)=C(O)C(CCC(C)C)(CCC(C)C)C1=O [HHC, hexahydrocolupulone]
IC50 (MCF-7 cells): 1620 nM
cross resistance with vancomycin [1]: not cross resistant with vancomycin
MIC ([1]; Enterococcus): 5 µM (≈ 2.03 µg/mL)
MTD [2]: ~6.5 mg/kg
maximal tolerated dose (MTD) (BDF1 mice): 200 µM
cells/ml (Leishmania tarentolae; 0.1 μM, 6 hr): 2.65 no. of cells × 10^6
cells/ml (Leishmania tarentolae; 0.1 μM, 12 hr): 6.58 no. of cells × 10^6
cells/ml (Leishmania tarentolae; 0.1 μM, 18 hr): 12.1 no. of cells × 10^6
cells/ml (Leishmania tarentolae; 0.1 μM, 24 hr): 21.2 no. of cells × 10^6
cells/ml (Leishmania tarentolae; 0.1 μM, 32 hr): 43.9 no. of cells × 10^6
cells/ml (Leishmania tarentolae; 0.25 μM, 6 hr): 3.0 no. of cells × 10^6
cells/ml (Leishmania tarentolae; 0.25 μM, 12 hr): 7.35 no. of cells × 10^6
cells/ml (Leishmania tarentolae; 0.25 μM, 18 hr): 12.7 no. of cells × 10^6
cells/ml (Leishmania tarentolae; 0.25 μM, 24 hr): 19.72 no. of cells × 10^6
cells/ml (Leishmania tarentolae; 0.25 μM, 32 hr): 40.1 no. of cells × 10^6
cells/ml (Leishmania tarentolae; 0.5 μM, 6 hr): 2.43 no. of cells × 10^6
cells/ml (Leishmania tarentolae; 0.5 μM, 12 hr): 5.13 no. of cells × 10^6
cells/ml (Leishmania tarentolae; 0.5 μM, 18 hr): 9.22 no. of cells × 10^6
cells/ml (Leishmania tarentolae; 0.5 μM, 24 hr): 14.2 no. of cells × 10^6
cells/ml (Leishmania tarentolae; 0.5 μM, 32 hr): 29.2 no. of cells × 10^6
cells/ml (Leishmania tarentolae; 1.0 μM, 6 hr): 2.09 no. of cells × 10^6
cells/ml (Leishmania tarentolae; 1.0 μM, 12 hr): 2.53 no. of cells × 10^6
cells/ml (Leishmania tarentolae; 1.0 μM, 18 hr): 2.55 no. of cells × 10^6
cells/ml (Leishmania tarentolae; 1.0 μM, 24 hr): 2.9 no. of cells × 10^6
cells/ml (Leishmania tarentolae; 1.0 μM, 32 hr): 3.4 no. of cells × 10^6
cells/ml (Leishmania tarentolae; 2.5 μM, 6 hr): 1.81 no. of cells × 10^6
cells/ml (Leishmania tarentolae; 2.5 μM, 12 hr): 3.03 no. of cells × 10^6
cells/ml (Leishmania tarentolae; 2.5 μM, 18 hr): 3.38 no. of cells × 10^6
cells/ml (Leishmania tarentolae; 2.5 μM, 24 hr): 2.13 no. of cells × 10^6
cells/ml (Leishmania tarentolae; 2.5 μM, 32 hr): 2.82 no. of cells × 10^6
activity at 0.1 µM (Leishmania tarentolae; 0.1 μM, 6 hr): 76.4%
activity at 0.1 µM (Leishmania tarentolae; 0.1 μM, 12 hr): 96.6%
activity at 0.1 µM (Leishmania tarentolae; 0.1 μM, 18 hr): 96.8%
activity at 0.1 µM (Leishmania tarentolae; 0.1 μM, 24 hr): 118%
activity at 0.1 µM (Leishmania tarentolae; 0.1 μM, 32 hr): 114%
activity at 0.25 µM (Leishmania tarentolae; 0.25 μM, 6 hr): 86.5%
activity at 0.25 µM (Leishmania tarentolae; 0.25 μM, 12 hr): 103%
activity at 0.25 µM (Leishmania tarentolae; 0.25 μM, 18 hr): 101%
activity at 0.25 µM (Leishmania tarentolae; 0.25 μM, 24 hr): 110%
activity at 0.25 µM (Leishmania tarentolae; 0.25 μM, 32 hr): 104%
activity at 0.5 µM (Leishmania tarentolae; 0.5 μM, 6 hr): 70%
activity at 0.5 µM (Leishmania tarentolae; 0.5 μM, 12 hr): 72.1%
activity at 0.5 µM (Leishmania tarentolae; 0.5 μM, 18 hr): 73.8%
activity at 0.5 µM (Leishmania tarentolae; 0.5 μM, 24 hr): 79.3%
activity at 0.5 µM (Leishmania tarentolae; 0.5 μM, 32 hr): 75.6%
activity at 1 µM (Leishmania tarentolae; 1.0 μM, 6 hr): 60.2%
activity at 1 µM (Leishmania tarentolae; 1.0 μM, 12 hr): 35.5%
activity at 1 µM (Leishmania tarentolae; 1.0 μM, 18 hr): 20.4%
activity at 1 µM (Leishmania tarentolae; 1.0 μM, 24 hr): 16.2%
activity at 1 µM (Leishmania tarentolae; 1.0 μM, 32 hr): 8.8%
activity at 2.5 µM (Leishmania tarentolae; 2.5 μM, 6 hr): 52.2%
activity at 2.5 µM (Leishmania tarentolae; 2.5 μM, 12 hr): 42.6%
activity at 2.5 µM (Leishmania tarentolae; 2.5 μM, 18 hr): 27%
activity at 2.5 µM (Leishmania tarentolae; 2.5 μM, 24 hr): 11.9%
activity at 2.5 µM (Leishmania tarentolae; 2.5 μM, 32 hr): 7.3%
MIC ([3]; Staphylococcus aureus, read-out: [HHC] (MIC)): 1.01 µg/mL (≈ 2.5 µM)
antibiotic sensitivity ([3]; patient G, OxaRSA, threshold not given): S
